Experimental findings from patent publication US11512073B2, “Benzimidazole derivatives, pharmaceutical composition comprising the same, and use thereof” (Chongqing University of Arts and Sciences, priority 2020, dated 2022) are described below.

As a reminder, the IC50 is the concentration that inhibits the measured activity by half. A lower IC50 goes with greater potency.

Test [1] deals with HEK293T cells. The experiment in a line: HA-ubiquitin immunoprecipitation, H2A/H2AX ubiquitination. Type of test: cell-based. To be noted: 20 μM compound 7a for 24 h. The method, then: FIG. 6A: MDA-MB-231 and MDA-MB-468 were treated with indicated concentrations of compound 7a for 48 h, and then the immunofluorescence analysis was performed to detect γH2AX signal, the histone H2AX phosphorylation representing DSBs. Scale bar: 100 μm. FIG. 6B: γH2AX positive cells in (FIG. 6A) were counted and presented in the histogram. FIGS. 6C and 6D: following treatment with different concentrations (FIG. 6C) and times (FIG. 6D) of compound 7a, treated cell were lysed and phosphorylation/activation levels of ATM, NBS1, SMC1, γH2AX were examined by western blotting. Additionally, RNF8 and DNA repair proteins such as BRCA2 and RAD51 were detected using western. β-tubulin was employed as a loading control. […] P62 signal was measured by immunofluorescence analysis. […] HA-Ub was immunoprecipitated with HA binding beads and ubiquitinated H2A/H2AX was detected with anti-H2A/H2AX. […]
MDA-MB-231 and MDA-MB-468 cells were treated with the compound 7a (0, 5, 10 and 20 μmol/L) for 48 h, total protein was extracted using RIPA buffer (Beyotime, Shanghai, China) supplemented with protease/phosphatase inhibitor cocktail (Roche, Mannheim, Germany) at 4° C. for 30 min. The protein concentration was quantified by the BCA protein assay kit (Beyotime). […] The objective protein signal was obtained using an odyssey two-color infrared fluorescence imaging system (Li-cor, NE, USA). […]

The test system of test [2] is MDA-MB-231 and MDA-MB-468 cells. The experiment in a line: Colony forming assay. Type of test: cell-based, Human. To be noted: 0, 5, 10, 20 μmol/L. Here is the method:
MAD-MB-231 and MDA-MB-468 cells were seeded in a six-well plate at 1000 cells/well and treated with various concentrations of compound 7a (0, 5, 10, 20 μmol/L) for 48 h. After discarding the supernatant, the cells were cultured with fresh medium for 15 days until formed the visible colonies. Finally, colonies were fixed with 4% paraformaldehyde (PFA) and stained with crystal violet for 30 min to enable enumeration of colonies.

The subject of test [3] is TNBC cells. Put plainly: MTT cell viability assay, statements for both TNBC lines. Type of test: cell-based, Human. Particulars: MDA-MB-231 and MDA-MB-468; 24, 48 and 72 h. Here is the method: Compounds were dissolved in a hydrous dimethylsulfoxide (DMSO, Life technologies) to obtain a 50 mM stock solution, which was then added to the culture medium at a concentration range of 6.25-100 μM. […] Z-VAD-FMK was purchased from Selleckchem (Houston, Tex.); The reagents including 3-(4,5-dimethylthiazol-2-yl)-2,5-diphenyltetrazolium bromide (MTT), dimethyl sulfoxide (DMSO), penicillin, streptomycin, propidium iodide (PI) were purchased from Sigma-Aldrich (MO, USA); All the primary antibodies used in this study were from Cell Signaling Technology (MA, USA) and the secondary antibodies were from LI-COR Biosciences (NE, USA).
(§1) Human triple negative breast cancer cell lines MDA-MB-231 and MDA-MB-468 were purchased from the American Type Culture Collection (ATCC, VA, USA). These cells were cultured in high-glucose DMEM (Gibco, USA) supplemented with 10% fetal bovine serum (FBS, Gibco) and 1% penicillin/streptomycin (Gibco) at 37° C. in a humidified incubator containing 5% CO2.
(§2) The antiproliferative activity of compounds was measured with the MTT assay. […] The absorbance value was determined at 570 nm using a microplate reader (Bio-Tek, VT, USA). Data were analyzed by GraphPad Prism 6. […]

Test [4] relates to MDA-MB-231 cells. Put plainly: MTT cell viability assay. Type of test: cell-based. Particulars: Homo sapiens. Here is the method:
(§3) Compounds were dissolved in a hydrous dimethylsulfoxide (DMSO, Life technologies) to obtain a 50 mM stock solution, which was then added to the culture medium at a concentration range of 6.25-100 μM. Cells were treated with compounds at indicated concentrations for 48 h, and 0.1% DMSO was used as the vehicle. Z-VAD-FMK was purchased from Selleckchem (Houston, Tex.); The reagents including 3-(4,5-dimethylthiazol-2-yl)-2,5-diphenyltetrazolium bromide (MTT), dimethyl sulfoxide (DMSO), penicillin, streptomycin, propidium iodide (PI) were purchased from Sigma-Aldrich (MO, USA); All the primary antibodies used in this study were from Cell Signaling Technology (MA, USA) and the secondary antibodies were from LI-COR Biosciences (NE, USA).
as §1, §2
(Tetrazolium dyes change colour on reduction, which living cells bring about.)

For test [5], the system named is MDA-MB-468 cells. Put plainly: MTT cell viability assay. Type of test: cell-based. To be noted: Homo sapiens. Here is the method: as §3, §1, §2

As to `O=C(NC1CCCCC1)c1[nH]cnc1-c1nc2ccccc2[nH]1` [Compound 7a], the “formation of H2A poly-ubiquitin chains” value in test [1] is “significantly reduced”. Further, the colony formation entry in test [2] was “smaller and decreased colony numbers”. The TNBC cell viability entry in test [3] is “efficiently inhibited TNBC cell viability in a time- and dose-dependent manner”. The half-maximal inhibitory concentration (IC50) came to 8.3 µM in test [4] and 6 µM in test [5].
